Data on 29 compounds can be found in US7700592B2, “α2C adrenoreceptor agonists” (Schering Corporation, priority 2005, dated 2010).

This test has as its target T1, α2C receptor (Homo sapiens, UniProt P18825).
T1 sequence (P18825 1-462): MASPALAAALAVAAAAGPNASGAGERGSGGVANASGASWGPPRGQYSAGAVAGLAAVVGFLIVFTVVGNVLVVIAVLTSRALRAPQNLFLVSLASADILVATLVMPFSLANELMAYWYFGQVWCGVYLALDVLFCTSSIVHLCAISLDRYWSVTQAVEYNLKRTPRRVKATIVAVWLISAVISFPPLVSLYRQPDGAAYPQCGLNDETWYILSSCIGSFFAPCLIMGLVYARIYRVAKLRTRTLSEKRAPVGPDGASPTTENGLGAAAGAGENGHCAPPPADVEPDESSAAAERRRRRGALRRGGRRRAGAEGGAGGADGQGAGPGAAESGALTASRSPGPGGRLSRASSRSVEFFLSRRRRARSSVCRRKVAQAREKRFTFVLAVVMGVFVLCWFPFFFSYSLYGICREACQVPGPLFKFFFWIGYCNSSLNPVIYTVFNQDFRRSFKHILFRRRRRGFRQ
Nature of the test: GTPγS assay, efficacy agonist activity (Emax) for α2C. It counts as biochemical. The note with it: active agonist = efficacy at α2C ≧30% Emax; functionally selective = additionally efficacy at α2A ≦30% Emax (GTPγS assay). In a few lines: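 Emax measured in a [^35S]GTPγS functional assay at the human α2C adrenoceptor, following Umland et al. An efficacy of ≧30% Emax defines an active α2C agonist.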
For the compound `CCN(C(=O)OCc1cn(C)cn1)c1ccc2c(c1)N(Cc1c[nH]cn1)CCO2` [Compound 287], the “Efficacy agonist activity (Emax, GTPγS assay) for α2C: evaluated as active or functionally selective agonist” value was “active or functionally selective agonists of the α2C receptor subtype”.

Turning to `CCN(C(=O)OCc1cn2ccsc2n1)c1ccc2c(c1)N(Cc1c[nH]cn1)CCO2` [Compound 289], the “Efficacy agonist activity (Emax, GTPγS assay) for α2C: evaluated as active or functionally selective agonist” value was “active or functionally selective agonists of the α2C receptor subtype”.

With `CCN(C(=O)OCc1cn2ccccc2n1)c1ccc2c(c1)N(Cc1c[nH]cn1)CCO2` [Compound 290], the “Efficacy agonist activity (Emax, GTPγS assay) for α2C: evaluated as active or functionally selective agonist” value is recorded as “active or functionally selective agonists of the α2C receptor subtype”.

Regarding `O=C(NCc1ccccn1)Nc1ccc2c(c1)N(Cc1c[nH]cn1)CCO2` [Compound 291], the “Efficacy agonist activity (Emax, GTPγS assay) for α2C: evaluated as active or functionally selective agonist” value is “active or functionally selective agonists of the α2C receptor subtype”.

For `O=C(NCCc1cccs1)Nc1ccc2c(c1)N(Cc1c[nH]cn1)CCO2` [Compound 297], the “Efficacy agonist activity (Emax, GTPγS assay) for α2C: evaluated as active or functionally selective agonist” value was “active or functionally selective agonists of the α2C receptor subtype”.

On to `O=C(Nc1ccc2c(c1)N(Cc1c[nH]cn1)CCO2)OCCOc1ccccc1` [Compound 304], for which the “Efficacy agonist activity (Emax, GTPγS assay) for α2C: evaluated as active or functionally selective agonist” value is on record as “active or functionally selective agonists of the α2C receptor subtype”.

On to `O=C(Nc1ccc2c(c1)N(Cc1c[nH]cn1)CCO2)OCc1ccc(F)cc1` [Compound 305], for which the “Efficacy agonist activity (Emax, GTPγS assay) for α2C: evaluated as active or functionally selective agonist” value is given as “active or functionally selective agonists of the α2C receptor subtype”.

On to `O=C(Nc1ccc2c(c1)N(Cc1c[nH]cn1)CCO2)OCc1cccc(F)c1` [Compound 306], for which the “Efficacy agonist activity (Emax, GTPγS assay) for α2C: evaluated as active or functionally selective agonist” value was “active or functionally selective agonists of the α2C receptor subtype”.

As for `O=C(NCc1ccc(F)cc1)Nc1ccc2c(c1)N(Cc1c[nH]cn1)CCO2` [Compound 307], the “Efficacy agonist activity (Emax, GTPγS assay) for α2C: evaluated as active or functionally selective agonist” value is given as “active or functionally selective agonists of the α2C receptor subtype”.

For the compound `O=C(NCc1cccc(F)c1)Nc1ccc2c(c1)N(Cc1c[nH]cn1)CCO2` [Compound 308], the “Efficacy agonist activity (Emax, GTPγS assay) for α2C: evaluated as active or functionally selective agonist” value was “active or functionally selective agonists of the α2C receptor subtype”.

As for `CS(=O)(=O)c1ccc(COC(=O)Nc2ccc3c(c2)N(Cc2c[nH]cn2)CCO3)cc1` [Compound 309], the “Efficacy agonist activity (Emax, GTPγS assay) for α2C: evaluated as active or functionally selective agonist” value was “active or functionally selective agonists of the α2C receptor subtype”.

With `O=C(Nc1ccc2c(c1)N(Cc1c[nH]cn1)CCO2)OCc1nccs1` [Compound 310], the “Efficacy agonist activity (Emax, GTPγS assay) for α2C: evaluated as active or functionally selective agonist” value is listed as “active or functionally selective agonists of the α2C receptor subtype”.

For the compound `O=C(Nc1ccc2c(c1)N(Cc1c[nH]cn1)CCO2)OCc1cc2cccnc2s1` [Compound 311], the “Efficacy agonist activity (Emax, GTPγS assay) for α2C: evaluated as active or functionally selective agonist” value is listed as “active or functionally selective agonists of the α2C receptor subtype”.

`O=C(Nc1ccc2c(c1)N(Cc1c[nH]cn1)CCO2)OCc1nc2ccccc2s1` [Compound 312]: the “Efficacy agonist activity (Emax, GTPγS assay) for α2C: evaluated as active or functionally selective agonist” value is on record as “active or functionally selective agonists of the α2C receptor subtype”.

As to `O=C(Nc1ccc2c(c1)N(Cc1c[nH]cn1)CCO2)OCc1ccnc(Cl)c1` [Compound 314], the “Efficacy agonist activity (Emax, GTPγS assay) for α2C: evaluated as active or functionally selective agonist” value is “active or functionally selective agonists of the α2C receptor subtype”.

In the case of `O=C(Nc1ccc2c(c1)N(Cc1c[nH]cn1)CCO2)OCC1CCC1` [Compound 315], the “Efficacy agonist activity (Emax, GTPγS assay) for α2C: evaluated as active or functionally selective agonist” value is recorded as “active or functionally selective agonists of the α2C receptor subtype”.

Take `O=C(Nc1ccc2c(c1)N(Cc1c[nH]cn1)CCO2)OCc1ccc2sccc2c1` [Compound 316]: the “Efficacy agonist activity (Emax, GTPγS assay) for α2C: evaluated as active or functionally selective agonist” value was “active or functionally selective agonists of the α2C receptor subtype”.

With `Cc1cc(COC(=O)Nc2ccc3c(c2)N(Cc2c[nH]cn2)CCO3)no1` [Compound 317], the “Efficacy agonist activity (Emax, GTPγS assay) for α2C: evaluated as active or functionally selective agonist” value is “active or functionally selective agonists of the α2C receptor subtype”.

Take `O=C(Nc1ccc2c(c1)N(Cc1c[nH]cn1)CCO2)OCc1cccnc1` [Compound 318]: the “Efficacy agonist activity (Emax, GTPγS assay) for α2C: evaluated as active or functionally selective agonist” value is “active or functionally selective agonists of the α2C receptor subtype”.

In the case of `CCN(C(=O)OCCSC)c1ccc2c(c1)N(Cc1c[nH]cn1)CCO2` [Compound 319], the “Efficacy agonist activity (Emax, GTPγS assay) for α2C: evaluated as active or functionally selective agonist” value is “active or functionally selective agonists of the α2C receptor subtype”.

In the case of `CCN(C(=O)OCc1cc(C)nn1C)c1ccc2c(c1)N(Cc1c[nH]cn1)CCO2` [Compound 323], the “Efficacy agonist activity (Emax, GTPγS assay) for α2C: evaluated as active or functionally selective agonist” value is on record as “active or functionally selective agonists of the α2C receptor subtype”.

As for `CCN(C(=O)OCc1cc(C)n(C)n1)c1ccc2c(c1)N(Cc1c[nH]cn1)CCO2` [Compound 324], the “Efficacy agonist activity (Emax, GTPγS assay) for α2C: evaluated as active or functionally selective agonist” value is “active or functionally selective agonists of the α2C receptor subtype”.

`CCN(c1ccc2c(c1)N(Cc1c[nH]cn1)CCO2)c1ccccn1` [Compound 326]: the “Efficacy agonist activity (Emax, GTPγS assay) for α2C: evaluated as active or functionally selective agonist” value is given as “active or functionally selective agonists of the α2C receptor subtype”.

`CCN(c1ccc2c(c1)N(Cc1c[nH]cn1)CCO2)c1nccs1` [Compound 327]: the “Efficacy agonist activity (Emax, GTPγS assay) for α2C: evaluated as active or functionally selective agonist” value is “active or functionally selective agonists of the α2C receptor subtype”.

For the compound `CCN(c1ccc2c(c1)N(Cc1c[nH]cn1)CCO2)c1cnccn1` [Compound 329], the “Efficacy agonist activity (Emax, GTPγS assay) for α2C: evaluated as active or functionally selective agonist” value is given as “active or functionally selective agonists of the α2C receptor subtype”.

Turning to `CCN(c1ccc2c(c1)N(Cc1c[nH]cn1)CCO2)c1ncc([N+](=O)[O-])s1` [Compound 331], the “Efficacy agonist activity (Emax, GTPγS assay) for α2C: evaluated as active or functionally selective agonist” value was “active or functionally selective agonists of the α2C receptor subtype”.

In the case of `CN(c1ccc2c(c1)N(Cc1c[nH]cn1)CCO2)c1ccccn1` [Compound 332], the “Efficacy agonist activity (Emax, GTPγS assay) for α2C: evaluated as active or functionally selective agonist” value was “active or functionally selective agonists of the α2C receptor subtype”.

With `CCN(c1ccc2c(c1)N(Cc1c[nH]cn1)CCO2)S(=O)(=O)CCN1C(=O)c2ccccc2C1=O` [Compound 335], the “Efficacy agonist activity (Emax, GTPγS assay) for α2C: evaluated as active or functionally selective agonist” value was “active or functionally selective agonists of the α2C receptor subtype”.

In the case of `Cc1cc(COC(=O)Nc2ccc3c(c2)N(Cc2c[nH]cn2)CCO3)n(C)n1` [Compound 340], the “Efficacy agonist activity (Emax, GTPγS assay) for α2C: evaluated as active or functionally selective agonist” value is on record as “active or functionally selective agonists of the α2C receptor subtype”.
